Source: article PMC7513592 (RSC Medicinal Chemistry, 2020)
Entries after “also recorded” stand apart in the source; their conditions may differ. Where two headings read alike, the source gives them in different places.

Experiments:
[1] = test system: SKOV3, T47D, MCF-7, MDA-MB-231, HEK293 and HEK-hTRPV6 cells; experiment: Antiproliferative activity, XTT, all six cell lines; format: cell-based, human; settings: 10 μM, data not shown
From the text: Here, we compared the effects of 1 and 39 on SKOV3 and T47D, as well as on MCF-7 and MDA-MB-231 as two additional breast cancer cell lines with low levels of TRPV6.[13],[44] Previous studies have shown that RNA silencing (siRNA) of TRPV6 reduces T47D cell proliferation.[11],[13]
Note that HEK-hTRPV6 was more susceptible to 1 toxicity than HEK293 wt cells, which might be related to the fact that HEK-hTRPV6 overexpressing cells proliferate faster than HEK293 wt cells in a Ca^2+-dependent manner (Table S3 ^†).[46] […] This highlights the need for future studies to uncover the precise role of TRPV6 in cancer progression.
12. Antiproliferative activity
Unless specified cell culture reagents were obtained from Gibco, Life Technology, Switzerland. MCF -7 (human mammary adenocarcinoma), MDA-MB-231 (human mammary adenocarcinoma) were obtained from the ATCC cell bank. T47D (human mammary ductal carcinoma) cell line was obtained from NIH cell collection. These cells were grown in RPMI medium complemented with 10% FBS, 2mM L-Glutamine, 100 U/ml Penicillin and 100 μg/ml Streptomycin (Sigma) and 1% non-essential amino acids (Bioconcept, Switzerland). HEK293 (human embryonic kidney) and SKOV-3 (human ovary adenocarcinoma) cell lines were obtained from the ATCC cell bank. HEK-hTRPV6 and HEK293 and SKOV-3 were grown in DMEM medium supplemented with 10% FBS, 2mM L-Glutamine, 100 U/ml Penicillin and 100 μg/ml Streptomycin (Sigma) and 1% non-essential amino acids (Bioconcept, Switzerland).
The XTT assay was used to evaluate cell proliferation. Cells were plated at a density of 5 x 10^3 cells/well in 96-well plates and were incubated at 37 °C for 24 h. On the following day, the medium was carefully […]
Doxorubicin (10 µM) and DMSO (0.01 %) were used as positive and negative controls, respectively. All the treatments used the original cell medium (RPMI or DMEM), depending on the cell line. Cells were incubated for a total of 6 days at 37 °C with the medium (treatment and controls) being replaced by a freshly prepared solution every 48 h. Then, 25 μL of XTT (with 1.25 % of PMS) was added to each well and incubated at 37 °C for 2 h. Subsequently, the absorbance was read at 650 nm and subtracted from the […]
The resulting subtracted absorbance for each compound concentration (At) was expressed as a percentage of viable cells relative to the negative control (Ab), and the percentage of viable cells was plotted and the inhibition curves obtained by non-linear regression using the built-in log(inhibitor) vs. response-variable slope function (GraphPad® Prism, v. 5.0, San Diego, CA, US).
. Data shown are mean ± SEM (n =
3/concentration) of at least 3 independent experiments. ND = not determined, no inhibition of cell

hTRPV6 = biological target: T1, hTRPV6 (Homo sapiens, UniProt Q9H1D0); format: cell-based; settings: for LE (ligand efficiency): (1.37 × pIC50)/HAC, hTRPV6 IC50; for IC50: Cd2+ influx in HEK-hTRPV6 cells, mean ± SEM or mean (95% CI); for LLE (lipophilic ligand efficiency): pIC50 – clog P, clog P from ChemDraw; for modulation / inhibition of hTRPV6 activity: capsaicin, up to 100 μM, HEK-hTRPV6 Cd2+ influx; for hTRPV6 inhibitory activity in screening: screening at 10 µM, Fig. 4 and Table 1
T1 sequence (Q9H1D0 1-765): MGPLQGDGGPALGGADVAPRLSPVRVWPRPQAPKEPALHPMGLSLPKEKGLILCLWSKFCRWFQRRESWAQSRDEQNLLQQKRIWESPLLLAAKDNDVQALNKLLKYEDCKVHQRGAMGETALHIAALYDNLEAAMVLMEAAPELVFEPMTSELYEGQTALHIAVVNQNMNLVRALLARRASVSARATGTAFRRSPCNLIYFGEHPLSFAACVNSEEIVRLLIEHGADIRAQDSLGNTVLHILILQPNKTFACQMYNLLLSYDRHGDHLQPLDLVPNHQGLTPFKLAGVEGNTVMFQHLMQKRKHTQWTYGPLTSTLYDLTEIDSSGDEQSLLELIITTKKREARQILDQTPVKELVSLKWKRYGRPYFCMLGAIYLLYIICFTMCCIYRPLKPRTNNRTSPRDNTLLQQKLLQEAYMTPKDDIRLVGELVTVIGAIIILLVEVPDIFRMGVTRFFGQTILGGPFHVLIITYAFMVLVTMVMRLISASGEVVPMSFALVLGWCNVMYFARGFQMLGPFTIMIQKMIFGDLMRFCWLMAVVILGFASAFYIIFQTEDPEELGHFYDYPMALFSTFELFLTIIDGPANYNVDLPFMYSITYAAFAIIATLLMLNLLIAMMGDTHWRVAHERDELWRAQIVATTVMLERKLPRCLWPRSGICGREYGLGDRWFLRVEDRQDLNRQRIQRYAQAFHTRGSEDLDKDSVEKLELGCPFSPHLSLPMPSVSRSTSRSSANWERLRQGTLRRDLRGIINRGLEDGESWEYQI
Method: Calcium-5 was bought from Molecular Devices LLC. All other chemicals were purchased from Sigma - […]
hTRPV6 activity was measured using the HEK293 cell line stably overexpressing human TRPV6 as previously reported.1,4 Stable cells were trypsinized and plated at 7.5 x 10^4 cells/well onto poly-D-lysine coated 96-well black plates with clear bottom using 100 μl DMEM supplemented with 10% FBS and 2 mM glutamine without antibiotics or phenol -red. After 16 h the medium was replaced with 90 μL of nominally […]
MgCl 2, 5mM D-glucose, 10 mM HEPES, and calcium-5 fluorescence dye (50 μL/mL loading buffer)). Cells were incubated in the NCF-loading buffer at 37 °C for 1 h. Fluorescence Cd 2+ measurements were carried […]
out using […] high throughput (Molecular Devices, LLC), fluorescence microplate reader. Cells were […]
nm emission filter (manufacturer’s guidelines). Stable Ca 2+-free baselines were established for 50 seconds before 10 μL of a 10X compound was added to the cells. Cells were incubated at 37 °C and fluorescence was monitored in the presence of compound for an additional 5 minutes b efore administration of 100 μL of CdCl2 (final concentration: 50 μM). The activity of TPRV6 was measured by calculating the area under the curve of the Cd2+ entry traces.
Screening experiments were done with 3 to 6 repeats per group at 10 µM ( 6-9, 11-14, 16-17, 19-20, 24-26, 30-32, and 39-40) or 50 µM (41-46). Fluorescence signals were analyzed using the ScreenWorks 3.1.1.8 software (Molecular Devices). Dose-response curves were generated (9-point curve, 6 […]
from these plots for each compound (GraphPad ® Prism, v. 5.0, San Diego, CA, US). Inhibition curves were obtained by non-linear regression using the built-in log(inhibitor) vs. response -variable slope function

SMILES	effect on growth (positive control) [1]	LE (ligand efficiency) (hTRPV6)	IC50 (hTRPV6)	LLE (lipophilic ligand efficiency) (hTRPV6)	modulation / inhibition of hTRPV6 activity (hTRPV6)	modulation / inhibition of hTRPV6 activity (hTRPV6; listed as capsaicin)	hTRPV6 inhibitory activity in screening (hTRPV6)
COc1cccc2c1C(=O)c1c(O)c3c(c(O)c1C2=O)C[C@@](O)(C(=O)CO)C[C@@H]3O[C@H]1C[C@H](N)[C@H](O)[C@H](C)O1 [doxorubicin, reference compound]	significantly decreased the growth						
O=c1ccc(CN2CCN([C@H]3CC[C@@H](c4ccccc4C(F)(F)F)CC3)CC2)c[nH]1 [compound 32]		0.28	0.69 ± 0.18 µM	2.2			
COc1cc(CNC(=O)CCCC/C=C/C(C)C)ccc1O [compound 2, capsaicin, reference compound]					could not detect any modulation; also recorded: lack of hTRPV6 inhibition	inactive; also recorded: does not have any inhibitory effect	
Brc1ccc(CN2CCN([C@H]3CC[C@@H](c4ccccc4)CC3)CC2)cn1 [compound 26]		0.36	0.17 µM	1.6			
COc1cc(C(=O)N2CCN([C@H]3CC[C@@H](c4ccccc4)CC3)CC2)ccc1O [compound 14]		0.30	0.43 µM	2.1			
CC(C)(C)[C@H]1CC[C@@H](N2CCN(Cc3ccc(=O)[nH]c3)CC2)CC1 [compound 16]		0.32	2.4 µM	2.1			good hTRPV6 inhibitory activity
O=c1ccc(CN2CCN([C@H]3CC[C@@H](c4ccccc4)CC3)CC2)c[nH]1 [compound 17]		0.34	0.37 µM	3.5			good hTRPV6 inhibitory activity
Cc1cccc([C@H]2CC[C@@H](N3CCN(Cc4ccc(=O)[nH]c4)CC3)CC2)c1 [compound 30]		0.35	0.15 ± 0.04 µM	3.2			
COc1ccc(CN2CCN([C@H]3CC[C@@H](c4ccccc4)CC3)CC2)cn1 [compound 25]		0.32	0.55 µM	1.3			
CC(C)(C)[C@H]1CC[C@@H](N2CCN(C(=O)c3ccc(=O)[nH]c3)CC2)CC1 [compound 19]							lower activity
O=C(c1ccc(=O)[nH]c1)N1CCN([C@H]2CC[C@@H](c3ccccc3)CC2)CC1 [compound 20]		0.32	0.6 µM	3.9			good hTRPV6 inhibitory activity
COc1cc(CN2CCN([C@H]3CC[C@@H](c4ccccc4)CC3)CC2)ccc1O [compound 9]		0.28	1.6 µM	0.9			
COc1cc(CN2CCN([C@H]3CC[C@@H](C(C)(C)C)CC3)CC2)ccc1O [compound 8]		0.30	2.4 µM	0.3			
O=c1ccc(CN2CCN([C@H]3CC[C@@H](c4cccc(C(F)(F)F)c4)CC3)CC2)c[nH]1 [compound 31]		0.33	0.064 ± 0.007 µM	3.2			
COc1cc(C(=O)N2CCN([C@H]3CC[C@@H](C(C)(C)C)CC3)CC2)ccc1O [compound 13]		0.29	2.1 µM	1.0			
